Test results from ChEMBL document CHEMBL3243998, “Conformation of 2,9-dimethyl-3'-hydroxy-5-phenyl-6,7-genzomorphan and its relation to other analgetics and enkephalin” (J Med Chem, 1978).

The molecules below were run against Opioid receptor (Rattus norvegicus, UniProt P33533+P34975+P33535) (assay: Displacement of [3H]naloxone from Sprague-Dawley rat cerebellum opioid receptor assessed as relative receptor affinity by scintillation counting). Settings: not given.
Assay type: protein assay

Point of comparison: `CN1CCC2(c3ccccc3)CC1Cc1ccccc12.O=C(O)C(O)C(O)C(=O)O` (single isomer, unassigned; form 1), IC50 600 nM. Against it:
- C[C@H]1[C@H]2Cc3ccc(O)cc3[C@]1(c1ccccc1)CCN2C.Cl — 32-fold lower, 19 nM
- C[C@@H]1[C@@H]2Cc3ccc(O)cc3[C@@]1(c1ccccc1)CCN2C.Cl — 17-fold higher, 10000 nM
- C[C@H]1[C@H]2Cc3ccc(O)cc3[C@]1(c1ccccc1)CC[N+]2(C)C.[I-] — 1.9-fold lower, 320 nM
- CN1CCC2(c3ccccc3)CC1Cc1ccccc12.O=C(O)C(O)C(O)C(=O)O (single isomer, unassigned; form 2) — 5-fold higher, 3000 nM

These molecules were tested on Mus musculus (assay: Analgesic activity in sc dosed mouse assessed as inhibition of phenylquinone-induced writhing). Settings: not given.
Assay type: functional
Parameters: log(1/ED50): unit not given here

Point of comparison: `C[C@@H]1[C@@H]2Cc3ccc(O)cc3[C@@]1(c1ccccc1)CCN2C.Cl`, “log(1/ED50)” value 1.9. Against it:
- C[C@H]1[C@H]2Cc3ccc(O)cc3[C@]1(c1ccccc1)CCN2C.Cl — higher, 2.82
- CN1CCC2(c3ccccc3)CC1Cc1ccccc12.O=C(O)C(O)C(O)C(=O)O (single isomer, unassigned; form 1) — within 0.2 log units, 1.88
- CN1CCC2(c3ccccc3)CC1Cc1ccccc12.O=C(O)C(O)C(O)C(=O)O (single isomer, unassigned; form 2) — within 0.2 log units, 1.71
- CCOC(=O)C1(c2ccccc2)CCN(C)CC1.Cl [MEPERIDINE HYDROCHLORIDE] — lower, 1.61

Molecule `CN1CCC2(c3ccccc3)CC1Cc1ccccc12.O=C(O)C(O)C(O)C(=O)O` (single isomer, unassigned; form 2) has an ED50 of 8 mg/kg.

Same assay, conditions: Mus musculus, sc; read-out: ED50

Point of comparison: `CCOC(=O)C1(c2ccccc2)CCN(C)CC1.Cl` [MEPERIDINE HYDROCHLORIDE], ED50 7 mg/kg. Against it:
- CN1CC[C@]23CCCC[C@H]2[C@H]1Cc1ccc(O)cc13.O.O=C(O)C(O)C(O)C(=O)O — 29-fold lower, 0.24 mg/kg
- C[C@H]1[C@H]2Cc3ccc(O)cc3[C@]1(c1ccccc1)CCN2C.Cl — 14-fold lower, 0.5 mg/kg
- C[C@@H]1[C@@H]2Cc3ccc(O)cc3[C@@]1(c1ccccc1)CCN2C.Cl — 1.7-fold lower, 4.2 mg/kg
- CN1CCC2(c3ccccc3)CC1Cc1ccccc12.O=C(O)C(O)C(O)C(=O)O (single isomer, unassigned; form 1) — within 1.5-fold, 5.5 mg/kg
